Among the data in ChEMBL document CHEMBL3507680, “University of Dundee, Gates Library screen for HepG2 cell viability” are cytotoxicity values, retold here.

The nature of the series: Human HepG2 cell viability assay in 384 well format. Type of series: toxicity, cell-based. On the set-up: dose 125 nL, time 70.5 hour; cytotoxicity at 70.5 h: concentration not given beside the values. To be noted: HepG2 cells, read-out: Inhibition.
As for `O=C1NCCO[C@H]2CN(C(=O)Cc3cccs3)CC[C@@H]12`, the cytotoxicity at 70.5 h is -7.13%.

Take `O=C(c1n[nH]cc1Cl)N1CCOCC1`: the cytotoxicity at 70.5 h is -6.1%.

For `CC(C)C(C(=O)N1CCC(N(C)c2cccnn2)CC1)n1cncn1` (stereo not given), the cytotoxicity at 70.5 h was -12.6%.

With `CNC(=O)[C@@H]1C[C@H]2CN(C(=O)c3ccco3)C[C@H]2N1C(C)C`, the cytotoxicity at 70.5 h is -10.2%.

`CCCSCC(=O)Nc1ncn(CC(=O)NCc2ccccc2)n1`: the cytotoxicity at 70.5 h is -5.44%.

On to `N#Cc1cccnc1N[C@@H]1c2ccccc2C[C@@H]1O`, for which the cytotoxicity at 70.5 h was -16.4%.

With `COCC(=O)NC[C@H]1OC[C@@H](NC2CCC(F)(F)CC2)[C@@H]1O`, the cytotoxicity at 70.5 h was -8.37%.

On to `O=C(NCC(F)(F)F)C(c1cccnc1)N1CCOCC1` (stereo not given), for which the cytotoxicity at 70.5 h was -5.8%.

Consider `COCC(O)CN(C)C(=O)c1cccc(-c2csc(C)n2)c1` (stereo not given), for which the cytotoxicity at 70.5 h was 1.21%.

As for `O=c1[nH]c(CCN2CCCC2Cn2cncn2)nc2ccccc12` (stereo not given), the cytotoxicity at 70.5 h is -9.5%.

`Cn1nnc2cc(C(=O)NS(=O)(=O)c3cccc(C#N)c3)ccc21`: the cytotoxicity at 70.5 h is -5.98%.

In the case of `Cc1ccnc(OCC(=O)N2CCCC2)n1`, the cytotoxicity at 70.5 h is -0.226%.

As for `O=c1n(CC2COCCO2)nc(CC2CCNCC2)n1-c1ccccc1` (stereo not given), the cytotoxicity at 70.5 h is -3.66%.

For `CCn1ccnc1CN1CCC(CNC(=O)c2ccc(C)nc2)C1` (stereo not given), the cytotoxicity at 70.5 h was -9.04%.

As for `Cc1nc(C)n(CC2CCCN2c2ncnc3sc(C)c(C)c23)n1` (stereo not given), the cytotoxicity at 70.5 h is -3.31%.

Take `CN(CC1CCCO1)c1nc(-c2cccnc2)nc2c1CCNCC2` (stereo not given): the cytotoxicity at 70.5 h is -10.6%.

`O=C(CCc1ccccc1Br)NCC(=O)NCc1ccccc1`: the cytotoxicity at 70.5 h was -7.06%.

In the case of `COc1nc2c(cc1C(=O)NCCCc1csc(N)n1)CCC2`, the cytotoxicity at 70.5 h was -6.85%.

In the case of `Cc1cc(C(=O)NC(C)c2nnn[nH]2)c2cccc(C)c2n1` (stereo not given), the cytotoxicity at 70.5 h was -0.0967%.

With `CCc1n[nH]c(C2CN(C(=O)c3cnc[nH]3)CCO2)n1` (stereo not given), the cytotoxicity at 70.5 h was -15.6%.

Consider `O=C(c1cn(CC(=O)N2CCc3[nH]cnc3C2)c2ccccc12)C1CC1`, for which the cytotoxicity at 70.5 h is -5.73%.

On to `c1cncc(OC[C@]23COC[C@H]2CN(Cc2cccs2)C3)c1`, for which the cytotoxicity at 70.5 h was -7.3%.

`Cn1cc(CN2CCC3(CCCN3S(C)(=O)=O)CC2)cn1`: the cytotoxicity at 70.5 h is 12.4%.

`CC(=O)N1CCN([C@@H]2CC[C@@H](NC(=O)c3cncc(C)c3)[C@H]2O)CC1`: the cytotoxicity at 70.5 h is 24%.

For `O=C1CC(c2cccnc2)c2c(sc3c2CCCC3)N1` (stereo not given), the cytotoxicity at 70.5 h is -3.62%.

For the molecule `CC(NC(=O)N1CCC(n2cncn2)CC1)c1ccc(F)cc1F` (stereo not given), the cytotoxicity at 70.5 h is -13.6%.

As to `O=C1NC2(CCN(CC(=O)N3CCOCC3)CC2)Nc2ccc(Br)cc21`, the cytotoxicity at 70.5 h is -2.15%.

With `CC(C)(O)CSCCNCc1ccc(Cl)c2cccnc12`, the cytotoxicity at 70.5 h turned out to be 12.8%.

As for `CC(=O)NCCC1CCCCN1S(=O)(=O)c1ccc2ccccc2c1` (stereo not given), the cytotoxicity at 70.5 h was found to be 4.83%.

Consider `CC(c1nc(C2CC2)no1)N1CCN(Cc2cccc(C#N)c2)CC1` (stereo not given), for which the cytotoxicity at 70.5 h is -2.01%.

With `Cc1nc(C(=O)N2CCCC2c2cnn(C)c2)ccc1C#N` (stereo not given), the cytotoxicity at 70.5 h was found to be 20.3%.

As to `CCc1nccn1C1CCCN(C(=O)c2cc(C3CC3)on2)C1` (stereo not given), the cytotoxicity at 70.5 h was -6.97%.

With `COc1ccc2c(c1)OC1(CCN(Cc3ccc(F)cc3)CC1)CC2=O`, the cytotoxicity at 70.5 h worked out at 1.23%.

For `O=c1c2cccnc2cnn1CC(O)c1cccc(C(F)(F)F)c1` (stereo not given), the cytotoxicity at 70.5 h amounted to 11.1%.

Turning to `CC(Cn1cncn1)NC(=O)NCC(C)(C)c1ccc(F)cc1` (stereo not given), the cytotoxicity at 70.5 h came out at 1.47%.

On to `Cc1nc[nH]c1-c1nccn1-c1cccc(CN2CCCC2)c1`, for which the cytotoxicity at 70.5 h was 13%.

Regarding `Cc1nc(C)c2c(n1)CCN(Cc1ccco1)CC2`, the cytotoxicity at 70.5 h was determined as 2.27%.

Consider `c1ccc(OCC2CC3(CCN(Cc4ccncc4)CC3)CO2)nc1` (stereo not given), for which the cytotoxicity at 70.5 h was -18.6%.

On to `CN(C)c1ccc(CC2CCN(c3cnccn3)C2)nn1` (stereo not given), for which the cytotoxicity at 70.5 h was -8.95%.

On to `COCCO[C@H]1CCN(C(=O)c2cnccn2)[C@H]1Cc1ccncc1`, for which the cytotoxicity at 70.5 h was -1.32%.

`CCc1nc2n(n1)CCCC2Nc1nc(C2CC2)ns1` (stereo not given): the cytotoxicity at 70.5 h was -8.97%.

`Cc1n[nH]c(C)c1NC(=O)CN1CCCC1c1c(C)nn(C)c1C` (stereo not given): the cytotoxicity at 70.5 h was found to be 1.54%.

As to `COc1ccc(C(=O)C2CCCN(c3cnccn3)C2)c(C)c1` (stereo not given), the cytotoxicity at 70.5 h is -8.1%.

Turning to `CC(=O)N1CCC(c2nc(Cc3ccccc3)no2)C1` (stereo not given), the cytotoxicity at 70.5 h is -3.88%.

`Cc1cccc(C(=O)NCc2ccc(N3CCCCC3)nc2)n1`: the cytotoxicity at 70.5 h is -3.76%.

Turning to `CCS(=O)(=O)N1CCC(c2nnc(C(F)(F)F)o2)CC1`, the cytotoxicity at 70.5 h worked out at 5.3%.

In the case of `O=C(O)C1CCCN(C(=O)CCn2ccc3c(Cl)cccc32)C1` (stereo not given), the cytotoxicity at 70.5 h was -17.2%.

On to `CSCCCN1CCn2nc(CNC(=O)N(C)C)cc2C1`, for which the cytotoxicity at 70.5 h turned out to be 0.863%.

In the case of `CC(NCCCn1ccnc1)c1ccc(N2CCCS2(=O)=O)cc1` (stereo not given), the cytotoxicity at 70.5 h turned out to be 31%.

Regarding `N#CCCN(CC1CCCO1)C(=O)c1ccsc1` (stereo not given), the cytotoxicity at 70.5 h was -4.29%.

With `CN(c1ccc(F)c(F)c1)S(=O)(=O)c1cc(C(=O)O)cs1`, the cytotoxicity at 70.5 h is -6.55%.

For `O=C(O)Cc1cn2cc(C(F)(F)F)ccc2n1`, the cytotoxicity at 70.5 h is -10.8%.

In the case of `Cn1cnc(CNC(=O)c2ccccc2-n2cc(CN)cn2)c1`, the cytotoxicity at 70.5 h is -5.11%.

For the molecule `CS(=O)(=O)N1C[C@H]2CCCN(Cc3nccs3)[C@H]2C1`, the cytotoxicity at 70.5 h was 14.5%.

Consider `COC(=O)CN(Cc1ccccc1C)C(=O)CCNC(=O)C(C)(C)C`, for which the cytotoxicity at 70.5 h is -6.72%.

Take `COc1cc(NC(=O)CCn2nc(-c3cccs3)oc2=O)cc(OC)c1`: the cytotoxicity at 70.5 h was -7.55%.

Regarding `CCCN1CCC=C(C2c3nc[nH]c3CCN2C(=O)c2ccco2)C1` (stereo not given), the cytotoxicity at 70.5 h is 22.4%.

Consider `Cc1cc(C)c2c(N3CCC(O)(Cn4ccnc4)CC3)ncnc2n1`, for which the cytotoxicity at 70.5 h is -0.18%.

With `COc1c(C2CCCN2CC(=O)Nc2cc(C)no2)c(C)nn1C` (stereo not given), the cytotoxicity at 70.5 h is -10.7%.

Take `CCN(CC)C(=O)c1c(Cl)cnn1CC`: the cytotoxicity at 70.5 h is -0.536%.

`Cc1cnn(C2CN(Cc3nc(-c4ccccc4C)no3)C2)c1`: the cytotoxicity at 70.5 h is 11%.

On to `O=C(NCC1CC1)C12CC(CN1Cc1nccs1)C2`, for which the cytotoxicity at 70.5 h was -9.03%.

On to `Cc1cc(N(C)CC2COc3ccccc3O2)nc(N)n1` (stereo not given), for which the cytotoxicity at 70.5 h is -5.43%.

As for `Cc1cc(C)c(C)c(OCCCNC(=O)NC(C)c2nncn2C)c1` (stereo not given), the cytotoxicity at 70.5 h is 14.5%.

Consider `O=C(NCCC1CN(Cc2c[nH]cn2)CCO1)c1ccccc1O` (stereo not given), for which the cytotoxicity at 70.5 h is 23%.

On to `O=C(NC1CCN(c2ncccn2)CC1)c1cc2c(cc1O)CCCC2`, for which the cytotoxicity at 70.5 h was found to be 6.37%.

Turning to `CC(C)(CNC(=O)NCCOc1cccc(F)c1)C(N)=O`, the cytotoxicity at 70.5 h was -1.08%.

On to `Cc1ccc(C(=O)N2CCSCC2)cc1NC(=O)NCCO`, for which the cytotoxicity at 70.5 h is -4.73%.

As to `Cc1noc(CS(=O)(=O)C/C=C/c2ccccc2)n1`, the cytotoxicity at 70.5 h was -19.1%.

For `CC(=O)N1CCc2ccc(S(=O)(=O)N3CCCCC3C)cc21` (stereo not given), the cytotoxicity at 70.5 h is 0.13%.

`CNC(=O)NC(=O)CCN1CCN(c2nccs2)CC1`: the cytotoxicity at 70.5 h is -0.375%.

As for `CCOCC1CN(C(=O)c2ccsc2)Cc2nn(C)cc21` (stereo not given), the cytotoxicity at 70.5 h was -8.31%.

Take `O=C1CCC2(CCCN(C(=O)Cc3ccccn3)C2)N1` (stereo not given): the cytotoxicity at 70.5 h turned out to be 2.4%.

On to `COc1ccc(C(=O)C2CCCN(Cc3cccc(F)c3)C2)c(OC)c1` (stereo not given), for which the cytotoxicity at 70.5 h was -0.757%.

In the case of `O=C(c1cccc(S(=O)(=O)NCCc2nccs2)c1)N1CCOCC1`, the cytotoxicity at 70.5 h is -3.1%.

In the case of `COc1ccc(C)cc1NC(=O)c1coc(C)n1`, the cytotoxicity at 70.5 h is -5.37%.

As for `CS(=O)(=O)CCCN1CCSCC1c1ccc(Cl)cc1` (stereo not given), the cytotoxicity at 70.5 h is -9.37%.

Take `O=C(Cc1ccccc1Cl)N1CCN(CC(O)COCCO)CC1` (stereo not given): the cytotoxicity at 70.5 h came to 1.21%.

Regarding `CCSc1ccc(NC(=O)NC(C)c2ccncc2)cn1` (stereo not given), the cytotoxicity at 70.5 h is -5.74%.

Take `Cn1ccnc1NC[C@@H]1CCC[C@@H]2CN(Cc3nccs3)C[C@@H]21`: the cytotoxicity at 70.5 h is -0.236%.

As to `Cc1nc(N2CCCC(C)C2)nc2cc(S(C)(=O)=O)ccc12` (stereo not given), the cytotoxicity at 70.5 h was -2.18%.

Take `NC(=O)c1c[nH]nc1NCc1ccc2c(c1)OCO2`: the cytotoxicity at 70.5 h is -18.7%.

As for `CCc1cnc(CN(C(C)=O)C2CCN(CCc3cccs3)C2)o1` (stereo not given), the cytotoxicity at 70.5 h is 8.24%.

Regarding `CCS(=O)(=O)Nc1ccc2c(c1)OCC(C)(C)C(=O)N2C`, the cytotoxicity at 70.5 h stood at 19%.

With `COc1cc(Nc2c(C#N)c(=O)n(C)c(=O)n2C)cc(OC)c1`, the cytotoxicity at 70.5 h was -6.16%.

Turning to `COc1ccc(S(=O)(=O)NCCC(O)c2ccccc2)c(C)c1` (stereo not given), the cytotoxicity at 70.5 h is -8.64%.

With `Cc1cccc(-c2noc(CNC(C)Cn3cc(C)cn3)n2)c1` (stereo not given), the cytotoxicity at 70.5 h is -0.846%.

As to `CN(Cc1nc2ccccc2n1C)CC1CCCN1c1cccnn1` (stereo not given), the cytotoxicity at 70.5 h is -11.1%.

For the molecule `COc1c(C)cnc(CNC(=O)c2cc(C)nc3c2c(C)nn3C)c1C`, the cytotoxicity at 70.5 h was -6.5%.

Take `Cc1ccc(CN(C)c2cc(N3CCCC3CO)ncn2)s1` (stereo not given): the cytotoxicity at 70.5 h was -4.83%.

As to `O=C(Nc1ccc(N2CCCC2)nc1)N1CCc2sccc2C1`, the cytotoxicity at 70.5 h came out at 15.9%.

On to `O=C(CN1CCCS1(=O)=O)Nc1ccc(OC2CCCC2)c(Cl)c1`, for which the cytotoxicity at 70.5 h was -0.366%.

For the molecule `O=C(c1cocn1)N1C[C@H]2CCC[C@@]2(COc2ccccn2)C1`, the cytotoxicity at 70.5 h was 8.39%.

In the case of `CN(Cc1cn2ccccc2c1C#N)C1CCCN(c2cccnn2)C1` (stereo not given), the cytotoxicity at 70.5 h was -11.9%.

For the molecule `CC(O)(CN1CCN(CCO)CC1)c1cccc(C(F)(F)F)c1` (stereo not given), the cytotoxicity at 70.5 h was 14.6%.

For `O=C(Nc1ccc(CN2CCOCC2)cc1)c1nccn2ccnc12`, the cytotoxicity at 70.5 h is 22.2%.

Take `COCC(=O)N1CCC(c2cc3n(n2)[C@@H](C(F)(F)F)C[C@@H](C)N3)CC1`: the cytotoxicity at 70.5 h is -8.82%.

In the case of `CN(Cc1cnn(C)c1)C(=O)NC1CCS(=O)(=O)C1` (stereo not given), the cytotoxicity at 70.5 h was -6.09%.

`O=C(NCC1CCN(Cc2ccsc2)CC1)NC1CC1`: the cytotoxicity at 70.5 h was determined as 1.34%.

For `O=c1c2ccc(Cl)cc2ncn1CCCN1CCCCC1CO` (stereo not given), the cytotoxicity at 70.5 h is -15.5%.
